Measured values from US20230303540A1 (Merck Sharp & Dohme LLC, priority 2020, published 2023).

Target: GST-tagged truncated human mutant G2019S LRRK2 (Homo sapiens, UniProt Q5S007, G2019S)
Assay: LRRK2 G2019S Km ATP LanthaScreen assay
Type: biochemical
Conditions: 134 μM ATP (Km ATP), LRRKtide substrate, mean IC50 values; read-out: LRRK2 pIC50 (converted)
How it was run: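 LanthaScreen TR-FRET read with fluorescein-LRRKtide and 134 μM ATP (Km) in Tris pH 8.5/10 mM MgCl2 buffer. The enzyme was preincubated 15 min with compound at room temperature, and the reaction ran 90 min at ambient temperature. Stopped with EDTA plus Tb anti-phospho-LRRKtide antibody; the 520/495 nm ratio gave a 4-parameter logistic IC50, mean of several runs.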

SMILES	IC50 [nM]
Cn1ncc(Nc2ncc3cc(Cl)c(N4CCN(C5(C)COC5)CC4)cc3n2)c1Cl [Ex-4.47, 6-chloro-N-(5-chloro-1-methyl-1H-pyrazol-4-yl)-7-[4-(3-methyloxetan-3-yl)piperazin-1-yl]quinazolin-2-amine]	8.56
CC1(N2CCN(c3cc4nc(Nc5cnn(CC6C[C@@H](F)[C@H](F)C6)c5)ncc4cc3Cl)CC2)COC1 [Ex-4.65, 6-chloro-N-(1-{[(3R,4R)-3,4-difluorocyclopentyl]methyl}-1H-pyrazol-4-yl)-7-[4-(3-methyloxetan-3-yl)piperazin-1-yl]quinazolin-2-amine]	23.9
C[C@H]1COC(=O)N1c1ccc2cnc(Nc3cc(C(C)(C)C)ns3)nc2c1 [Ex-8.10, (4S)-3-{2-[(3-tert-butyl-1,2-thiazol-5-yl)amino]quinazolin-7-yl}-4-methyl-1,3-oxazolidin-2-one]	0.625
CCC1(N2CCN(c3cc4nc(Nc5cnn(C6CC6)c5Cl)ncc4cc3Cl)CC2)COC1 [Ex-4.30, 6-chloro-N-(5-chloro-1-cyclopropyl-1H-pyrazol-4-yl)-7-[4-(3-ethyloxetan-3-yl)piperazin-1-yl]quinazolin-2-amine]	15.7
Cc1c(Nc2ncc3cc(Cl)c(N4CCN(C)C(C)(C)C4)cc3n2)cnn1CC(F)F [Ex-1.3]	180
CO[C@H]1CCN(c2cc3nc(Nc4cnn(C5(C)CC5)c4Cl)ncc3cc2Cl)C1 [Ex-4.40, 6-chloro-N-[5-chloro-1-(1-methylcyclopropyl)-1H-pyrazol-4-yl]-7-[(3S)-3-methoxypyrrolidin-1-yl]quinazolin-2-amine]	15.2
CC1(n2ncc(Nc3ncc4cc(Cl)c(N5CCC(N6CC(F)C6)CC5)cc4n3)c2Cl)CC1 [Ex-4.39, 6-chloro-N-[5-chloro-1-(1-methylcyclopropyl)-1H-pyrazol-4-yl]-7-[4-(3-fluoroazetidin-1-yl)piperidin-1-yl]quinazolin-2-amine]	0.625
O[C@H]1CCN(c2cc3nc(Nc4cnn(CC(F)F)c4Cl)ncc3cc2Cl)C1 [Ex-1.17, (3S)-1-(6-chloro-2-{[5-chloro-1-(2,2-difluoroethyl)-1H-pyrazol-4-yl]amino}quinazolin-7-yl)pyrrolidin-3-ol]	9.26
Clc1cc2cnc(Nc3cnn(C45CC(C4)C5)c3Cl)nc2cc1N1CCC2(CCCO2)CC1 [Ex-3.40, N-[1-(bicyclo[1.1.1]pentan-1-yl)-5-chloro-1H-pyrazol-4-yl]-6-chloro-7-(1-oxa-8-azaspiro[4.5]decan-8-yl) quinazolin-2-amine]	9.76
CC(C)(O)Cn1cc(Nc2ncc3cc(Cl)c(N4CCC(C)(O)CC4)cc3n2)cn1 [Ex-3.12, 1-(6-chloro-2-{[1-(2-hydroxy-2-methylpropyl)-1H-pyrazol-4-yl]amino}quinazolin-7-yl)-4-methyl-piperidin-4-ol]	0.221
CC1(N2CCN(c3cc4nc(Nc5cnn(CC6CC6)c5Cl)ncc4cc3Cl)CC2)COC1 [Ex-4.48, 6-chloro-N-[5-chloro-1-(cyclopropylmethyl)-1H-pyrazol-4-yl]-7-[4-(3-methyloxetan-3-yl)piperazin-1-yl]quinazolin-2-amine]	0.625
Cc1c(Nc2ncc3cc(Cl)c(N4CCC(C)(O)CC4)cc3n2)cnn1C1CC1(F)F (single isomer, unassigned) [Ex-6.10, 1-(6-chloro-2-{[1-(2,2-(R) or (S)difluorocyclopropyl)-5-methyl-1H-pyrazol-4-yl]amino}quinazolin-7-yl)-4-methylpiperidin-4-ol]	0.2
CC1CN(C2CCN(c3cc4nc(Nc5cnn(C6(C)CC6)c5Cl)ncc4cc3Cl)CC2)C1 [Ex-4.43, 6-chloro-N-[5-chloro-1-(1-methylcyclopropyl)-1H-pyrazol-4-yl]-7-[4-(3-methylazetidin-1-yl)piperidin-1-yl]quinazolin-2-amine]	3.52
OC1COCC1N1CCN(c2cc3nc(Nc4cnn(C5CC5(F)F)c4Cl)ncc3cc2Cl)CC1 (single isomer, unassigned) [Ex-6.27, (3S,4S) or (3R,4R) 4-[4-(6-chloro-2-{[5-chloro-1-(2,2-(R) or (S)difluorocyclopropyl)-1H-pyrazol-4-yl]amino}quinazolin-7-yl)piperazin-1-yl]oxolan-3-ol]	0.27
Clc1cc2cnc(Nc3cnn(C45CC(C4)C5)c3Cl)nc2cc1N1CCNCC1 [Ex-12.10, N-(1-(bicyclo[1.1.1]pentan-1-yl)-5-chloro-1H-pyrazol-4-yl)-6-chloro-7-(piperazin-1-yl)quinazolin-2-amine]	2.13
CC1(N2CCN(c3cc4nc(Nc5cnn(C6COC6)c5Cl)ncc4cc3Cl)CC2)COC1 [Ex-4.49, 6-chloro-N-[5-chloro-1-(oxetan-3-yl)-1H-pyrazol-4-yl]-7-[4-(3-methyloxetan-3-yl)piperazin-1-yl]quinazolin-2-amine]	1.87

SMILES	IC50 [nM]
Cc1c(Nc2ncc3cc(Cl)c(N4CCN(C5(C)COCC5O)CC4)cc3n2)cnn1C1CC1(F)F (single isomer, unassigned) [Ex-6.38, (3S,4S) or (3R,4R) 4-[4-(6-chloro-2-{[1-(2,2-(R) or (S)difluorocyclopropyl)-5-methyl-1H-pyrazol-4-yl]amino}quinazolin-7-yl)piperazin-1-yl]-4-methyloxolan-3-ol]	0.835
Cc1nsc(Nc2ncc3ccc(N4C(=O)C5CCC4C5)cc3n2)c1C (centres unmarked) [Ex-8.14, 2-{2-[(3,4-dimethyl-1,2-thiazol-5-yl)amino]quinazolin-7-yl}-2-azabicyclo[2.2.1]heptan-3-one]	7.79
Cc1c(N2CCN(C3(C)COC3)CC2)c(Cl)cc2cnc(Nc3cnn(CC(F)(F)F)c3)nc12 [Ex-4.3, 6-Chloro-8-methyl-7-(4-(3-methyloxetan-3-yl)piperazin-1-yl)-N-(1-(2,2,2-trifluoroethyl)-1H-pyrazol-4-yl)quinazolin-2-amine]	3.36
Cc1c(Nc2ncc3cc(Cl)c(N4CCN(C5COCC5O)CC4)cc3n2)cnn1C(F)F (single isomer, unassigned) [Ex-13.6, (3S,4S) or (3R,4R)-4-(4-(6-chloro-2-((1-(difluoromethyl)-5-methyl-1H-pyrazol-4-yl)amino)quinazolin-7-yl)piperazin-1-yl)tetrahydrofuran-3-ol]	0.668
CC1(O)CCN(c2cc3nc(Nc4cnn(CC(F)F)c4Cl)ncc3cc2Cl)C1 (centres unmarked) [Ex-1.14, 1-(6-chloro-2-{[5-chloro-1-(2,2-difluoroethyl)-1H-pyrazol-4-yl]amino}quinazolin-7-yl)-3-methylpyrrolidin-3-ol]	4.71
CCn1ncc(Nc2ncc3ccc(N4C(=O)OC[C@@H]4C)cc3n2)c1C [Ex-7.1, (S)-3-(2-((1-ethyl-5-methyl-1H-pyrazol-4-yl)amino)quinazolin-7-yl)-4-methyloxazolidin-2-one]	0.989
C[C@]1(O)[C@@H]2CC[C@H]1CN(c1cc3nc(Nc4cnn(C5CC5)c4)ncc3cc1Cl)C2 [Ex-1.36, (8-syn)-3-{6-chloro-2-[(1-cyclopropyl-1H-pyrazol-4-yl)amino]quinazolin-7-yl}-8-methyl-3-azabicyclo[3.2.1]octan-8-ol]	6.72
CCn1ncc(Nc2ncc3ccc(N4C(=O)OCC4C4CC4)cc3n2)c1C (single isomer, unassigned) [Ex-7.16, (R) or (S) 4-cyclopropyl-3-{2-[(1-ethyl-5-methyl-1H-pyrazol-4-yl)amino]quinazolin-7-yl}-1,3-oxazolidin-2-one]	0.625
Cc1c(Nc2ncc3ccc(N4C(=O)OC[C@@H]4C)cc3n2)cnn1C1CCOCC1 [Ex-1.48, (4S)-4-methyl-3-(2-{[5-methyl-1-(oxan-4-yl)-1H-pyrazol-4-yl]amino}quinazolin-7-yl)-1,3-oxazolidin-2-one]	0.625
CCn1ncc(Nc2ncc3ccc(N4C(=O)CCC4C)cc3n2)c1C (single isomer, unassigned) [Ex-7.18, (R) or (S) 1-{2-[(1-ethyl-5-methyl-1H-pyrazol-4-yl)amino]quinazolin-7-yl}-5-methylpyrrolidin-2-one]	8.73
Cc1cc2cnc(Nc3cnn(C45CC(C4)C5)c3C)nc2cc1N1CCN(C2(C)CCOC2)CC1 (single isomer, unassigned) [Ex-2.4, (3S,4S or 3R,4R)-N-(1-(bicyclo[1.1.1]pentan-1-yl)-5-methyl-1H-pyrazol-4-yl)-6-methyl-7-(4-(3-methyltetrahydrofuran-3-yl)piperazin-1-yl)quinazolin-2-amine]	0.279
Cn1cc(Nc2ncc3cc(Cl)c(N4CCN(C5(C)COC5)CC4)cc3n2)c(C(F)(F)F)n1 [Ex-4.21, 6-chloro-7-[4-(3-methyloxetan-3-yl)piperazin-1-yl]-N-[1-methyl-3-(trifluoromethyl)-1H-pyrazol-4-yl]quinazolin-2-amine]	36.8
Cn1ncc(Nc2ncc3cc(Cl)c(N4CCN(C5COCC5O)CC4)cc3n2)c1Cl (single isomer, unassigned) [Ex-6.7, (3S,4S) or (3R,4R) 4-(4-{6-chloro-2-[(5-chloro-1-methyl-1H-pyrazol-4-yl)amino]quinazolin-7-yl}piperazin-1-yl)oxolan-3-ol]	1.59
FC(F)Cn1ncc(Nc2ncc3cc(Cl)c(N4CCC(N5CCCC5)CC4)cc3n2)c1Cl [Ex-1.16, 6-chloro-N-[5-chloro-1-(2,2-difluoroethyl)-1H-pyrazol-4-yl]-7-[4-(pyrrolidin-1-yl)piperidin-1-yl]quinazolin-2-amine]	16
CC1CN(c2cc3nc(Nc4cnn(C5CC5)c4Cl)ncc3cc2Cl)CCN1C1COCC1O (single isomer, unassigned) [Ex-12.7, (3S,4S) or (3R, 4R)-4-((R) or (S)-4-(4-(6-chloro-2-((5-chloro-1-cyclopropyl-1H-pyrazol-4-yl)amino)quinazolin-7-yl)-2-methylpiperazin-1-yl)tetrahydrofuran-3-ol]	4.36
CC(C)(O)Cn1cc(Nc2ncc3cc(Cl)c(N4CCC(O)CC4)cc3n2)cn1 [Ex-3.10, 1-(6-chloro-2-{[1-(2-hydroxy-2-methylpropyl)-1H-pyrazol-4-yl]amino}quinazolin-7-yl)piperidin-4-ol]	0.407
